Consider 4 molecules from ChEMBL document CHEMBL1201862, “PubChem BioAssay data set” (2004).

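Protocol summary: plate cells (96-well), add compound at 5 concentrations, incubate 48 h, interpolate endpoints linearly. GI50 = concentration required for 50% inhibition of growth.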 Active and inactive are the calls of the source. Cut-off read from the data, not from the text of the source: active = GI50 up to about 1.1 µM and inactive = higher.

Among the test systems are TK-10; PC-3; OVCAR-3; UACC-257; T47D; SF-295; CAKI-1; OVCAR-5; K562; COLO 205; DU-145; HCT-15; OVCAR-4; SW-620; MDA-MB-435; NCI-H522; HOP-92; SK-MEL-2; SR; HOP-62.
Assay in all cases: inhibition of tumour cell growth, NCI panel, 48 h

As for `Cc1cc(-n2nnc(C(=O)O)c2-c2ccccc2)c2ccc(Cl)cc2n1`, the GI50 in the assay with TK-10, in the assay on PC-3, in the assay with OVCAR-3, in the assay on UACC-257, in the assay on T47D and with SF-295 was > 100 µM (inactive) in each case. Also, the GI50 in the assay with CAKI-1 is > 100 µM (inactive); in the assay with OVCAR-5, > 100 µM (inactive); with K562, 58.1 µM (inactive); in the assay with COLO 205 it was > 100 µM (inactive); in the assay with DU-145, > 100 µM (inactive); in the assay on HCT-15, > 100 µM. Moreover, the GI50 with OVCAR-4, in the assay with SW-620, with MDA-MB-435, in the assay with NCI-H522, in the assay with HOP-92 and in the assay with SK-MEL-2 was > 100 µM (inactive) in each case.

With `O=c1[nH]c(=O)n(C2OC(CO)C(O)C2O)cc1OCCCc1ccccc1` (stereo unspecified), the GI50 in the assay on TK-10, in the assay on PC-3, in the assay on OVCAR-3, with UACC-257, with T47D and in the assay with SF-295 was > 100 µM (inactive) in each case. Further, the GI50 with CAKI-1 is > 100 µM (inactive); in the assay on SR, > 100 µM (inactive); with OVCAR-5, > 100 µM (inactive); with COLO 205, > 100 µM (inactive); with DU-145, > 100 µM (inactive); in the assay with HCT-15, > 100 µM. For the same molecule, the GI50 in the assay on HOP-62, in the assay with OVCAR-4, in the assay on SW-620, in the assay with MDA-MB-435 and with SK-MEL-2 was > 100 µM (inactive) each time.

Take `CCC1(C)C=Cc2c(cc(O)c3c(=O)c4ccccc4n(C)c23)O1` (stereo unspecified): the GI50 with TK-10, in the assay with PC-3, in the assay with OVCAR-3, with UACC-257, in the assay on T47D and in the assay with SF-295 was > 10 µM (inactive) in each case. The GI50 is 3.26 µM (inactive) with CAKI-1; > 10 µM (inactive) with OVCAR-5; > 10 µM (inactive) in the assay with K562; > 10 µM (inactive) in the assay with COLO 205; > 10 µM (inactive) with DU-145; > 10 µM in the assay with HCT-15. Besides, the GI50 in the assay on HOP-62, with OVCAR-4, in the assay on SW-620, in the assay on MDA-MB-435, with NCI-H522 and with HOP-92 was > 10 µM (inactive) throughout. For the same molecule, the GI50 in the assay on SK-MEL-2 was > 10 µM (inactive).

In the case of `O=P(Oc1ccc(Cl)cc1)(Oc1ccc(Cl)cc1)N1CC1`, the GI50 in the assay on TK-10 is > 10 µM (inactive); in the assay on PC-3, > 10 µM (inactive); in the assay with OVCAR-3 it was > 10 µM (inactive); with UACC-257, 4.38 µM (inactive); in the assay on T47D, > 10 µM (inactive); in the assay on SF-295, > 10 µM (inactive). Also, the GI50 in the assay on SR is > 10 µM (inactive); in the assay on OVCAR-5, > 10 µM (inactive); with K562, > 10 µM (inactive); with COLO 205 it was > 10 µM (inactive); with DU-145 it was > 10 µM (inactive); in the assay on HCT-15, > 10 µM. In addition, the GI50 with HOP-62, in the assay with OVCAR-4, in the assay on SW-620, with MDA-MB-435 and with SK-MEL-2 was > 10 µM (inactive) in each case.
